How the values were obtained:
[1] = tested on: Pseudomonas aeruginosa; assay: Antibacterial activity against Pseudomonas aeruginosa PAO1 assessed as reduction in bacterial growth by measuring fosfomycin MIC at <=[…] uM in presence of fosfomycin incubated for 18 hrs by broth microdilution assay based checkerboard assay (reference value: […] microg/ml); format: functional; conditions: dose microM <=10
[2] = tested on: Pseudomonas aeruginosa; assay: Antibacterial activity against Pseudomonas aeruginosa 91433 assessed as fractional inhibitory concentration index in presence of doxycycline incubated for 18 hrs by broth microdilution assay; format: functional
[3] = tested on: Pseudomonas aeruginosa; assay: Antibacterial activity against Pseudomonas aeruginosa PAO1 assessed as fractional inhibitory concentration index in presence of Tobramycin incubated for 18 hrs by broth microdilution assay based checkerboard assay; format: functional
[4] = tested on: Pseudomonas aeruginosa; assay: Antibacterial activity against Pseudomonas aeruginosa PAO1 assessed as reduction in bacterial growth by measuring trimethoprim MIC at <=10 uM in presence of trimethoprim incubated for 18 hrs by broth microdilution assay based checkerboard assay (reference value: 64 microg/ml); format: functional; conditions: dose microM <=10
[5] = tested on: Pseudomonas aeruginosa; assay: Antibacterial activity against Pseudomonas aeruginosa PAO1 assessed as fractional inhibitory concentration index in presence of Trimethoprim incubated for 18 hrs by broth microdilution assay based checkerboard assay; format: functional
[6] = tested on: Escherichia coli; assay: Antibacterial activity against gentamicin, tobramycin, ciprofloxacin-resistant Escherichia coli ATCC 97615 harboring aac(3')IIa gene assessed as reduction in bacterial growth incubated for 18 hrs by broth microdilution assay; format: functional
[7] = tested on: Pseudomonas aeruginosa; assay: Antibacterial activity against Pseudomonas aeruginosa PAO1 assessed as fractional inhibitory concentration index in presence of Moxifloxacin incubated for 18 hrs by broth microdilution assay based checkerboard assay; format: functional
[8] = tested on: Pseudomonas aeruginosa; assay: Antibacterial activity against Pseudomonas aeruginosa PAO1 assessed as reduction in bacterial growth by measuring doxycycline MIC at <=[…] uM in presence of doxycycline incubated for 18 hrs by broth microdilution assay based checkerboard assay (reference value: […] microg/ml); format: functional; conditions: dose microM <=10
[9] = tested on: Pseudomonas aeruginosa; assay: Antibacterial activity against Pseudomonas aeruginosa PAO1 assessed as fractional inhibitory concentration index in presence of Nitrofurantoin incubated for 18 hrs by broth microdilution assay based checkerboard assay; format: functional
[10] = tested on: Pseudomonas aeruginosa; assay: Antibacterial activity against Pseudomonas aeruginosa PAO1 assessed as reduction in bacterial growth by measuring linezolid MIC at <=10 uM in presence of linezolid incubated for 18 hrs by broth microdilution assay based checkerboard assay (reference value: 1024 microg/ml); format: functional; conditions: dose microM <=10
[11] = tested on: Pseudomonas aeruginosa; assay: Antibacterial activity against Pseudomonas aeruginosa PAO1 assessed as reduction in bacterial growth by measuring cefotaxime MIC at <=[…] uM in presence of cefotaxime incubated for 18 hrs by broth microdilution assay based checkerboard assay (reference value: […] microg/ml); format: functional; conditions: dose microM <=10
[12] = tested on: Pseudomonas aeruginosa; assay: Antibacterial activity against Pseudomonas aeruginosa PAO1 assessed as fractional inhibitory concentration index in presence of Novobiocin incubated for 18 hrs by broth microdilution assay based checkerboard assay; format: functional
[13] = tested on: Pseudomonas aeruginosa; assay: Antibacterial activity against Pseudomonas aeruginosa PAO1 assessed as reduction in bacterial growth by measuring nitrofurantoin MIC at <=10 uM in presence of nitrofurantoin incubated for 18 hrs by broth microdilution assay based checkerboard assay (reference value: 512 microg/ml); format: functional; conditions: dose microM <=10
[14] = tested on: Escherichia coli; assay: Antibacterial activity against Escherichia coli CAN-ICU 63074 (AMK 32) assessed as reduction in bacterial growth incubated for 18 hrs by broth microdilution assay; format: functional
[15] = Cytotoxicity against human HEK293 cells assessed as cell viability at 50 uM incubated for 48 hrs by prestoblue assay; format: cell-based; conditions: read-out: Activity
[16] = tested on: Pseudomonas aeruginosa; assay: Antibacterial activity against Pseudomonas aeruginosa PAO1 assessed as reduction in bacterial growth by measuring erythromycin MIC at <=10 uM in presence of erythromycin incubated for 18 hrs by broth microdilution assay based checkerboard assay (reference value: 256 microg/ml); format: functional; conditions: dose microM <=10
[17] = tested on: Pseudomonas aeruginosa; assay: Antibacterial activity against Pseudomonas aeruginosa 91433 assessed as reduction in bacterial growth incubated for 18 hrs by broth microdilution assay; format: functional
[18] = tested on: Pseudomonas aeruginosa; assay: Antibacterial activity against Pseudomonas aeruginosa PAO1 assessed as reduction in bacterial growth by measuring ceftazidime MIC at <=10 uM in presence of ceftazidime incubated for 18 hrs by broth microdilution assay based checkerboard assay (reference value: 2 microg/ml); format: functional; conditions: dose microM <=10
[19] = tested on: Pseudomonas aeruginosa; assay: Antibacterial activity against Pseudomonas aeruginosa PAO1 assessed as reduction in bacterial growth by measuring chloramphenicol MIC at <=[…] uM in presence of chloramphenicol incubated for 18 hrs by broth microdilution assay based checkerboard assay (reference value: […] microg/ml); format: functional; conditions: dose microM <=10
[20] = tested on: Pseudomonas aeruginosa; assay: Antibacterial activity against Pseudomonas aeruginosa PAO1 assessed as reduction in bacterial growth by measuring moxifloxacin MIC at <=10 uM in presence of moxifloxacin incubated for 18 hrs by broth microdilution assay based checkerboard assay (reference value: 1 microg/ml); format: functional; conditions: dose microM <=10
[21] = tested on: Klebsiella pneumoniae; assay: Antibacterial activity against Klebsiella pneumoniae ATCC 13883 assessed as reduction in bacterial growth incubated for 18 hrs by broth microdilution assay; format: functional
[22] = tested on: Pseudomonas aeruginosa; assay: Antibacterial activity against Pseudomonas aeruginosa PAO1 assessed as fractional inhibitory concentration index in presence of Colistin incubated for 18 hrs by broth microdilution assay based checkerboard assay; format: functional
[23] = tested on: Pseudomonas aeruginosa; assay: Antibacterial activity against Pseudomonas aeruginosa 101243 assessed as fractional inhibitory concentration index in presence of doxycycline incubated for 18 hrs by broth microdilution assay; format: functional
[24] = tested on: Pseudomonas aeruginosa; assay: Antibacterial activity against Pseudomonas aeruginosa PAO1 assessed as fractional inhibitory concentration index in presence of Minocycline incubated for 18 hrs by broth microdilution assay based checkerboard assay; format: functional
[25] = tested on: Acinetobacter baumannii; assay: Antibacterial activity against Acinetobacter baumannii CAN-ICU 63169 assessed as reduction in bacterial growth incubated for 18 hrs by broth microdilution assay; format: functional
[26] = tested on: Pseudomonas aeruginosa; assay: Antibacterial activity against Pseudomonas aeruginosa 259-96918 assessed as fractional inhibitory concentration index in presence of chloramphenicol incubated for 18 hrs by broth microdilution assay; format: functional
[27] = tested on: Pseudomonas aeruginosa; assay: Antibacterial activity against gentamicin-resistant Pseudomonas aeruginosa CAN-ICU 62308 assessed as reduction in bacterial growth incubated for 18 hrs by broth microdilution assay; format: functional
[28] = tested on: Pseudomonas aeruginosa; assay: Antibacterial activity against Pseudomonas aeruginosa PAO1 assessed as fractional inhibitory concentration index in presence of Erythromycin incubated for 18 hrs by broth microdilution assay based checkerboard assay; format: functional
[29] = tested on: Escherichia coli; assay: Antibacterial activity against gentamicin-resistant Escherichia coli CAN-ICU 61714 assessed as reduction in bacterial growth incubated for 18 hrs by broth microdilution assay; format: functional
[30] = tested on: Pseudomonas aeruginosa; assay: Antibacterial activity against Pseudomonas aeruginosa 260-97103 assessed as fractional inhibitory concentration index in presence of chloramphenicol incubated for 18 hrs by broth microdilution assay; format: functional
[31] = tested on: Pseudomonas aeruginosa; assay: Antibacterial activity against Pseudomonas aeruginosa 91433 assessed as fractional inhibitory concentration index in presence of chloramphenicol incubated for 18 hrs by broth microdilution assay; format: functional
[32] = tested on: Pseudomonas aeruginosa; assay: Antibacterial activity against Pseudomonas aeruginosa PAO1 assessed as fractional inhibitory concentration index in presence of Vancomycin incubated for 18 hrs by broth microdilution assay based checkerboard assay; format: functional
[33] = tested on: Staphylococcus epidermidis; assay: Antibacterial activity against methicillin-susceptible Staphylococcus epidermidis CANWARD 81388 assessed as reduction in bacterial growth incubated for 18 hrs by broth microdilution assay; format: functional
[34] = tested on: Pseudomonas aeruginosa; assay: Antibacterial activity against Pseudomonas aeruginosa PAO1 assessed as fractional inhibitory concentration index in presence of Rifampicin incubated for 18 hrs by broth microdilution assay based checkerboard assay; format: functional
[35] = tested on: Pseudomonas aeruginosa; assay: Antibacterial activity against Pseudomonas aeruginosa 101243 assessed as fractional inhibitory concentration index in presence of chloramphenicol incubated for 18 hrs by broth microdilution assay; format: functional

## CO[C@H]1/C=C/O[C@@]2(C)Oc3c(C)c(O)c4c(O)c(c(/C=N/N5CCN(Cc6cn(CCCCCCCCCCCCO[C@@H]7[C@@H](O[C@H]8O[C@H](CO)[C@@H](O)[C@H](N)[C@H]8O)[C@H](N)C[C@H](N)[C@H]7O[C@H]7O[C@H](CN)[C@@H](O)C[C@H]7N)nn6)CC5)c(O)c4c3C2=O)NC(=O)/C(C)=C\C=C\[C@H](C)[C@H](O)[C@@H](C)[C@@H](O)[C@@H](C)[C@H](OC(C)=O)[C@@H]1C.O=C(O)C(F)(F)F.O=C(O)C(F)(F)F.O=C(O)C(F)(F)F.O=C(O)C(F)(F)F.O=C(O)C(F)(F)F
[1]
  MIC: 4 µg/mL
[2]
  fractional inhibitory concentration index (FICI): 0.133
[3]
  fractional inhibitory concentration index (FICI): 1.03
[4]
  MIC: 16 µg/mL
[5]
  fractional inhibitory concentration index (FICI): 0.28
[6]
  MIC: 32 µg/mL
[7]
  fractional inhibitory concentration index (FICI): 1.03
[8]
  MIC: 1 µg/mL
[9]
  fractional inhibitory concentration index (FICI): 0.53
[10]
  MIC: 256 µg/mL
[11]
  MIC: 16 µg/mL
[12]
  fractional inhibitory concentration index (FICI): 0.28
[13]
  MIC: 256 µg/mL
[14]
  MIC: 32 µg/mL
[15]
  viability at 48 h, 50 µM: > 70%
[16]
  MIC: 8 µg/mL
[17]
  MIC: > 128 µg/mL
[18]
  MIC: 2 µg/mL
[19]
  MIC: 2 µg/mL
[20]
  MIC: 1 µg/mL
[21]
  MIC: > 32 µg/mL
[22]
  fractional inhibitory concentration index (FICI): 0.26
[23]
  fractional inhibitory concentration index (FICI): 0.094
[24]
  fractional inhibitory concentration index (FICI): 0.28
[25]
  MIC: > 32 µg/mL
[26]
  fractional inhibitory concentration index (FICI): <0.625
[27]
  MIC: > 32 µg/mL
[28]
  fractional inhibitory concentration index (FICI): 0.06
[29]
  MIC: > 32 µg/mL
[30]
  fractional inhibitory concentration index (FICI): <0.129
[31]
  fractional inhibitory concentration index (FICI): 0.25
[32]
  fractional inhibitory concentration index (FICI): 0.53
[33]
  MIC: 4 µg/mL
[34]
  fractional inhibitory concentration index (FICI): 0.15
[35]
  fractional inhibitory concentration index (FICI): 0.125
